Species on record: Rattus norvegicus
Assay: Open TG-GATES - Regimen: Daily Repeat
Assay type: toxicity, organism-based, Sprague-Dawley
Design: regimen Daily Repeat, gender Male, age 6 weeks
Details: in vivo, po, route gavage; for APTT / Bas / Eos / Fbg / Hb / Ht / Lym / MCH / MCHC / MCV / Mono / Neu / PT / Plat / RBC / Ret / WBC: tissue Blood; for ALP / ALT / AST / BUN / CRE / DBIL / GLC / IP / K / Na / PL / RALB / TBIL / TC / TG / TP / gamma-GTP: tissue Plasma
[1] = 0 mg/kg, 72 h, dose level Control, time 3 day
[2] = 0 mg/kg, […], dose level Control, time 7 day
[3] = 0 mg/kg, […], dose level Control, time 14 day
[4] = 0 mg/kg, […], dose level Control, time 28 day
[5] = 30 mg/kg, 72 h, dose level Low, time 3 day
[6] = 30 mg/kg, […], dose level Low, time 7 day
[7] = 30 mg/kg, […], dose level Low, time 14 day
[8] = 30 mg/kg, […], dose level Low, time 28 day

SMILES: NS(=O)(=O)c1cc(C(=O)O)c(NCc2ccco2)cc1Cl [FUROSEMIDE]
- TERMINAL_BW [1]: 240.2 g
- APTT [1]: 15.8 s
- Bas [1]: 0.2%
- Eos [1]: 1%
- Fbg [1]: 306 mg/dL
- Hb [1]: 13.5 g/dL
- Ht [1]: 40.3%
- Lym [1]: 73.8%
- MCH [1]: 21.5 pg
- MCHC [1]: 33.6%
- MCV [1]: 64.1 fL
- Mono [1]: 3.2%
- Neu [1]: 21.2%
- PT [1]: 14.8 s
- Plat [1]: 114.8 x10_4/uL
- RBC [1]: 629.2 x10_4/ul
- Ret [1]: 6.5%
- WBC [1]: 92.7 x10_2/uL
- ALP [1]: 1396.2 IU/L
- ALT [1]: 42 IU/L
- AST [1]: 66.2 IU/L
- BUN [1]: 14.4 mg/dL
- CRE [1]: 0.2 mg/dL
- DBIL [1]: 0.016 mg/dL
- GLC [1]: 180.2 mg/dL
- IP [1]: 7.7 mg/dL
- K [1]: 3.8 meq/L
- Na [1]: 142.6 meq/L
- PL [1]: 182 mg/dL
- RALB [1]: 2.7 g/dL
- TBIL [1]: 0.056 mg/dL
- TC [1]: 91 mg/dL
- TG [1]: 130 mg/dL
- TP [1]: 5.8 g/dL
- gamma-GTP [1]: 0.4 IU/L
- TERMINAL_BW [2]: 280.2 g
- TERMINAL_BW [3]: 327.8 g
- TERMINAL_BW [4]: 406.3 g
- APTT [2]: 17.8 s
- Bas [2]: 0.6%
- Eos [2]: 1%
- Fbg [2]: 294.2 mg/dL
- Hb [2]: 13.7 g/dL
- Ht [2]: 39.9%
- Lym [2]: 80.2%
- MCH [2]: 21.2 pg
- MCHC [2]: 34.5%
- MCV [2]: 61.5 fL
- Mono [2]: 2.6%
- Neu [2]: 14.8%
- PT [2]: 15.5 s
- Plat [2]: 125.8 x10_4/uL
- RBC [2]: 648.6 x10_4/ul
- Ret [2]: 5.2%
- WBC [2]: 100.8 x10_2/uL
- APTT [3]: 19.3 s
- Bas [3]: 0.4%
- Eos [3]: 1%
- Fbg [3]: 289.4 mg/dL
- Hb [3]: 15 g/dL
- Ht [3]: 43.1%
- Lym [3]: 81%
- MCH [3]: 21 pg
- MCHC [3]: 34.7%
- MCV [3]: 60.4 fL
- Mono [3]: 2.8%
- Neu [3]: 14.2%
- PT [3]: 15.3 s
- Plat [3]: 117.3 x10_4/uL
- RBC [3]: 713.8 x10_4/ul
- Ret [3]: 4.2%
- WBC [3]: 117.4 x10_2/uL
- APTT [4]: 17.8 s
- Bas [4]: 0.6%
- Eos [4]: 1.2%
- Fbg [4]: 266.6 mg/dL
- Hb [4]: 15.1 g/dL
- Ht [4]: 44.6%
- Lym [4]: 82.2%
- MCH [4]: 19.1 pg
- MCHC [4]: 33.7%
- MCV [4]: 56.7 fL
- Mono [4]: 2.2%
- Neu [4]: 13.4%
- PT [4]: 16.4 s
- Plat [4]: 100.7 x10_4/uL
- RBC [4]: 787.6 x10_4/ul
- Ret [4]: 1.8%
- WBC [4]: 98.8 x10_2/uL
- ALP [2]: 1277.2 IU/L
- ALT [2]: 38.2 IU/L
- AST [2]: 61.4 IU/L
- BUN [2]: 15.6 mg/dL
- CRE [2]: 0.2 mg/dL
- DBIL [2]: 0.018 mg/dL
- GLC [2]: 179.4 mg/dL
- IP [2]: 7.8 mg/dL
- K [2]: 4 meq/L
- Na [2]: 142.6 meq/L
- PL [2]: 168 mg/dL
- RALB [2]: 2.7 g/dL
- TBIL [2]: 0.05 mg/dL
- TC [2]: 85.6 mg/dL
- TG [2]: 119.8 mg/dL
- TP [2]: 5.9 g/dL
- gamma-GTP [2]: 0.8 IU/L
- ALP [3]: 1456.8 IU/L
- ALT [3]: 43.4 IU/L
- AST [3]: 64.6 IU/L
- BUN [3]: 15.2 mg/dL
- CRE [3]: 0.2 mg/dL
- DBIL [3]: 0.014 mg/dL
- GLC [3]: 177.8 mg/dL
- IP [3]: 7.4 mg/dL
- K [3]: 4.1 meq/L
- Na [3]: 143.6 meq/L
- PL [3]: 160.6 mg/dL
- RALB [3]: 2.8 g/dL
- TBIL [3]: 0.046 mg/dL
- TC [3]: 69.8 mg/dL
- TG [3]: 157.2 mg/dL
- TP [3]: 6.1 g/dL
- gamma-GTP [3]: 0.6 IU/L
- ALP [4]: 1033.8 IU/L
- ALT [4]: 36.4 IU/L
- AST [4]: 64.6 IU/L
- BUN [4]: 14.4 mg/dL
- CRE [4]: 0.2 mg/dL
- DBIL [4]: 0.016 mg/dL
- GLC [4]: 183.4 mg/dL
- IP [4]: 6.3 mg/dL
- K [4]: 3.9 meq/L
- Na [4]: 143.8 meq/L
- PL [4]: 137.2 mg/dL
- RALB [4]: 2.8 g/dL
- TBIL [4]: 0.048 mg/dL
- TC [4]: 64.8 mg/dL
- TG [4]: 116.6 mg/dL
- TP [4]: 6.2 g/dL
- gamma-GTP [4]: 0.4 IU/L
- TERMINAL_BW [5]: 242 g
- APTT [5]: 16.1 s
- Bas [5]: 0.2%
- Eos [5]: 1%
- Fbg [5]: 282.4 mg/dL
- Hb [5]: 13.4 g/dL
- Ht [5]: 39.8%
- Lym [5]: 79.2%
- MCH [5]: 21.7 pg
- MCHC [5]: 33.6%
- MCV [5]: 64.6 fL
- Mono [5]: 2.4%
- Neu [5]: 16.8%
- PT [5]: 15.2 s
- Plat [5]: 115.5 x10_4/uL
- RBC [5]: 617 x10_4/ul
- Ret [5]: 5.5%
- WBC [5]: 93.7 x10_2/uL
- ALP [5]: 1458.2 IU/L
- ALT [5]: 37.6 IU/L
- AST [5]: 66.6 IU/L
- BUN [5]: 16.2 mg/dL
- CRE [5]: 0.2 mg/dL
- DBIL [5]: 0.012 mg/dL
- GLC [5]: 173.8 mg/dL
- IP [5]: 7.3 mg/dL
- K [5]: 3.8 meq/L
- Na [5]: 142.6 meq/L
- PL [5]: 157 mg/dL
- RALB [5]: 2.6 g/dL
- TBIL [5]: 0.048 mg/dL
- TC [5]: 79.2 mg/dL
- TG [5]: 94.6 mg/dL
- TP [5]: 5.7 g/dL
- gamma-GTP [5]: 0.6 IU/L
- TERMINAL_BW [6]: 283.7 g
- TERMINAL_BW [7]: 321.7 g
- TERMINAL_BW [8]: 410.5 g
- APTT [6]: 17.3 s
- Bas [6]: 0.2%
- Eos [6]: 1%
- Fbg [6]: 291 mg/dL
- Hb [6]: 13.4 g/dL
- Ht [6]: 39.7%
- Lym [6]: 78.2%
- MCH [6]: 21.2 pg
- MCHC [6]: 33.7%
- MCV [6]: 62.8 fL
- Mono [6]: 3%
- Neu [6]: 16.4%
- PT [6]: 15.5 s
- Plat [6]: 114.5 x10_4/uL
- RBC [6]: 631.8 x10_4/ul
- Ret [6]: 5.9%
- WBC [6]: 125.8 x10_2/uL
- APTT [7]: 19.2 s
- Bas [7]: 0.4%
- Eos [7]: 0.8%
- Fbg [7]: 296.8 mg/dL
- Hb [7]: 14.4 g/dL
- Ht [7]: 42.1%
- Lym [7]: 81.4%
- MCH [7]: 20.8 pg
- MCHC [7]: 34.3%
- MCV [7]: 60.7 fL
- Mono [7]: 2.2%
- Neu [7]: 14.2%
- PT [7]: 15.8 s
- Plat [7]: 109.5 x10_4/uL
- RBC [7]: 693.6 x10_4/ul
- Ret [7]: 3.9%
- WBC [7]: 112.4 x10_2/uL
- APTT [8]: 17.7 s
- Bas [8]: 0.6%
- Eos [8]: 1%
- Fbg [8]: 270.4 mg/dL
- Hb [8]: 14.8 g/dL
- Ht [8]: 43.9%
- Lym [8]: 81.2%
- MCH [8]: 19.8 pg
- MCHC [8]: 33.8%
- MCV [8]: 58.5 fL
- Mono [8]: 1.8%
- Neu [8]: 15%
- PT [8]: 15.8 s
- Plat [8]: 95.5 x10_4/uL
- RBC [8]: 750.2 x10_4/ul
- Ret [8]: 2.5%
- WBC [8]: 110.9 x10_2/uL
- ALP [6]: 1491.8 IU/L
- ALT [6]: 41.2 IU/L
- AST [6]: 67.4 IU/L
- BUN [6]: 16.2 mg/dL
- CRE [6]: 0.2 mg/dL
- DBIL [6]: 0.018 mg/dL
- GLC [6]: 188.2 mg/dL
- IP [6]: 7.5 mg/dL
- K [6]: 4 meq/L
- Na [6]: 142.6 meq/L
- PL [6]: 170.2 mg/dL
- RALB [6]: 2.6 g/dL
- TBIL [6]: 0.05 mg/dL
- TC [6]: 83.6 mg/dL
- TG [6]: 130.2 mg/dL
- TP [6]: 5.7 g/dL
- gamma-GTP [6]: 0.8 IU/L
- ALP [7]: 1426.6 IU/L
- ALT [7]: 40.8 IU/L
- AST [7]: 70 IU/L
- BUN [7]: 16.6 mg/dL
- CRE [7]: 0.2 mg/dL
- DBIL [7]: 0.016 mg/dL
- GLC [7]: 188.6 mg/dL
- IP [7]: 6.7 mg/dL
- K [7]: 3.9 meq/L
- Na [7]: 143.6 meq/L
- PL [7]: 152 mg/dL
- RALB [7]: 2.6 g/dL
- TBIL [7]: 0.046 mg/dL
- TC [7]: 72.2 mg/dL
- TG [7]: 126.6 mg/dL
- TP [7]: 5.9 g/dL
- gamma-GTP [7]: 0.4 IU/L
- ALP [8]: 1044.8 IU/L
- ALT [8]: 36 IU/L
- AST [8]: 58.6 IU/L
- BUN [8]: 15.8 mg/dL
- CRE [8]: 0.2 mg/dL
- DBIL [8]: 0.016 mg/dL
- GLC [8]: 179.4 mg/dL
- IP [8]: 5.8 mg/dL
- K [8]: 3.9 meq/L
- Na [8]: 144 meq/L
- PL [8]: 164.4 mg/dL
- RALB [8]: 2.7 g/dL
- TBIL [8]: 0.044 mg/dL
- TC [8]: 78.4 mg/dL
- TG [8]: 155.8 mg/dL
- TP [8]: 6.3 g/dL
- gamma-GTP [8]: 1 IU/L
